The test system of this data set is Mice (C57/B6J) fed with high-fat food. An excerpt:
Mice (C57/B6J, 8 weeks old male) were divided into 4 groups (5 animals each), and the first group (DB) was freely fed with ordinary food (CertifiedDiet “MF” manufactured by Oriental Yeast Co., ltd.). The second group (HFD) was freely fed with high-fat food (High Fat Diet 32, manufactured by CLEA Japan, Inc.), […].
When the mouse was 20 weeks old, the body weight, the liver weight, the serum aspartate aminotransferase (AST), the alanine aminotransferase (ALT), the serum triglyceride (TG), the free fatty acid value (FFA) and the total cholesterol value (T-cho) were measured.

Where [1] appears, read: HFD6 (6 mg/kg/day) and HFD60 (60 mg/kg/day) groups in comparison to HFD group, 20 weeks old.
Setting [2] is: high-fat food mice, glutathione in water 6 or 60 mg/kg/day, 20 weeks old.

Take `N[C@@H](CCC(=O)N[C@@H](CS)C(=O)NCC(=O)O)C(=O)O` [glutathione]: under setting [1], the “FFA (free fatty acid value)” value is given as “significant decrease”, the “T-cho (total cholesterol value)” value is on record as “significant decrease” and the “TG (triglyceride value)” value is listed as “significant decrease”. Also, under “HFD6 group compared with HFD60 group”, the “serum AST, ALT, TG, FFA and T-cho: dose dependence” value is “decrease dependently on the concentration”. The “consumption amounts of feed and water” value (all of the groups (DB, HFD, HFD6, HFD60)) is “no significant difference”. For the same molecule, the “deposition of fat on the liver by high-fat food” value (high-fat food mice, glutathione 6 or 60 mg/kg/day) is reported as “suppressed”. Under setting [2], the body weight entry was “decrease of the body weight was recognized”, the liver weight result is listed as “decreased dependently on the concentration” and the “ratio of liver weight/body weight” value is “decrease of the body weight ratio was also recognized”.

The record behind these values is US20180050078A1, “COMPOSITION FOR IMPROVING OR PREVENTING NONALCOHOLIC FATTY LIVER” (KOHJIN LIFE SCIENCES CO., LTD., priority 2015, published 2018).
